Publication PMC11684019, “Unveiling the Antimycobacterial Potential of Novel 4-Alkoxyquinolines: Insights into Selectivity, Mechanism of Action, and In Vivo Exposure” (Journal of Medicinal Chemistry, 2024)
In brackets after ≈: the same amount, converted by molar mass. Read-outs that look alike come from different tables or passages of the source.

What was measured:
[1] = test system: M. tuberculosis H37Rv strain; assay: microbe, parasite or virus in culture; type: cell-based, Mycobacterium tuberculosis
Mtb = conditions: cited from earlier work
[2] = test system: M. tuberculosis strain PT2 (MDR clinical isolate); type: cell-based, Mycobacterium tuberculosis
HepG2 cells [3] = conditions: read-out: CC50 HepG2; MTT method, 72 h
Vero cells [4] = conditions: read-out: CC50 Vero; Neutral Red method, 72 h
Vero cells [5] = conditions: read-out: CC50 Vero; MTT method, 72 h
HepG2 cells [6] = conditions: read-out: CC50 HepG2; Neutral Red method, 72 h
[7] = test system: M. tuberculosis strain PT12 (MDR clinical isolate); type: cell-based, Mycobacterium tuberculosis
[8] = test system: M. tuberculosis strain PT20 (MDR clinical isolate); type: cell-based, Mycobacterium tuberculosis
[9] = Aqueous solubility (UHPLC-DAD); conditions: 25 °C, 4 h; for Solubility pH 1.2: 0.1 M HCl solution; for Solubility pH 9.1: 0.1 M NH4HCO3 solution; for Solubility pH 7.4: PBS
[10] = test system: M. tuberculosis H37Rv strain in murine macrophage RAW 264.7 cells; type: cell-based, Mycobacterium tuberculosis
in vitro = conditions: PAMPA, pH 7.4
[11] = M. tuberculosis H37Rv, resazurin-based assay

Cc1cc(OCCCNc2ccc(OC(F)(F)F)cc2)c2cc(Cl)ccc2n1 [8m, N-(3-((6-Chloro-2-methylquinolin-4-yl)oxy)propyl)-4-(trifluoromethoxy)aniline]
MIC [1, 11]: 0.19 µM (≈ 0.0781 µg/mL)

COc1ccc2nc(C)cc(OCC(=O)Nc3ccc4ccccc4c3)c2c1 [compound 2]
MIC (Mtb) (Mtb): 0.05 µM (≈ 0.0186 µg/mL)

N-(3-((6-bromo-2-ethylquinolin-4-yl)oxy)propyl)-4-ethylaniline [8w]
MIC PT2 [2]: <0.05 µM
CC50 (HepG2 cells [3]): > 20 µM
CC50 (Vero cells [4]): 9.1 µM
CC50 (Vero cells [5]): > 20 µM
CC50 (HepG2 cells [6]): 8.3 µM
MIC [1, 11]: 0.10 µM
MIC PT12 [7]: <0.05 µM
MIC PT20 [8]: <0.05 µM

4-Bromo-N-(3-((6-methoxy-2-methylquinolin-4-yl)oxy)propyl)aniline [8d]
MIC PT2 [2]: <0.05 µM
CC50 (HepG2 cells [3]): 15.3 µM
CC50 (Vero cells [4]): 12.8 µM
CC50 (Vero cells [5]): > 20 µM
CC50 (HepG2 cells [6]): 16.8 µM
MIC [1, 11]: 0.10 µM
MIC PT12 [7]: <0.05 µM
MIC PT20 [8]: <0.05 µM

4-Iodo-N-(3-((6-methoxy-2-methylquinolin-4-yl)oxy)propyl)aniline [8e]
MIC PT2 [2]: <0.05 µM
CC50 (HepG2 cells [3]): 10.6 µM
CC50 (Vero cells [4]): 7.5 µM
CC50 (Vero cells [5]): 8.2 µM
CC50 (HepG2 cells [6]): 12.8 µM
MIC [1, 11]: 0.09 µM
MIC PT12 [7]: <0.05 µM
MIC PT20 [8]: <0.05 µM

CCCc1ccc(NC(=O)COc2cc(C)nc3ccc(OC)cc23)cc1 [compound 3]
MIC (Mtb) (Mtb): 0.05 µM (≈ 0.0182 µg/mL)

COc1ccc2nc(C)cc(OCCCNc3ccc(C(C)C)cc3)c2c1 [8j, 4-Isopropyl-N-(3-((6-methoxy-2-methylquinolin-4-yl)oxy)propyl)aniline]
MIC [1, 11]: 0.11 µM (≈ 0.0401 µg/mL)

Cc1cc(OCCCNc2ccc(Cl)cc2)c2cc(Cl)ccc2n1 [8k, 4-Chloro-N-(3-((6-chloro-2-methylquinolin-4-yl)oxy)propyl)aniline]
MIC [1, 11]: 0.22 µM (≈ 0.0795 µg/mL)

CCc1cc(OCCCNc2ccc(Br)cc2)c2cc(Br)ccc2n1 [8v, 4-Bromo-N-(3-((6-bromo-2-ethylquinolin-4-yl)oxy)propyl)aniline]
MIC [1, 11]: 0.34 µM (≈ 0.158 µg/mL)

COc1ccc2nc(C)cc(OCCCNc3ccccc3)c2c1 [8a, N-(3-((6-methoxy-2-methylquinolin-4-yl)oxy)propyl)aniline]
MIC [1, 11]: 0.25 µM (≈ 0.0806 µg/mL)

Cc1cc(OCCCNc2ccc(Cl)cc2)c2cc(Br)ccc2n1 [8r, N-(3-((6-bromo-2-methylquinolin-4-yl)oxy)propyl)-4-chloroaniline]
MIC PT2 [2]: <0.05 µM
Solubility pH 1.2 [9]: >2,470 μM
Solubility pH 9.1 [9]: 57.18 μM
Solubility pH 7.4 [9]: 15.0 μM
CC50 (HepG2 cells [3]): > 20 µM
CC50 (Vero cells [4]): 11.2 µM
CC50 (Vero cells [5]): 19.8 µM
CC50 (HepG2 cells [6]): > 20 µM
MIC [1, 11]: 0.10 µM (≈ 0.0406 µg/mL)
MIC PT12 [7]: <0.05 µM
MIC PT20 [8]: <0.05 µM

4-Ethyl-N-(3-((6-methoxy-2-methylquinolin-4-yl)oxy)propyl)aniline [8i]
MIC PT2 [2]: <0.06 µM
CC50 (HepG2 cells [3]): 0.3 µM
CC50 (Vero cells [4]): 4.2 µM
CC50 (Vero cells [5]): < 1 µM
CC50 (HepG2 cells [6]): 8.1 µM
MIC [1, 11]: 0.06 µM
MIC PT12 [7]: <0.06 µM
MIC PT20 [8]: <0.06 µM

COc1ccc2nc(C)cc(OCCCNc3ccc(OC(F)(F)F)cc3)c2c1 [8g, N-(3-((6-methoxy-2-methylquinolin-4-yl)oxy)propyl)-4-(trifluoromethoxy)aniline]
MIC [1, 11]: 0.20 µM (≈ 0.0813 µg/mL)

CCc1cc(OCCCNc2ccc(Br)cc2)c2cc(Cl)ccc2n1 [8p, 4-Bromo-N-(3-((6-chloro-2-ethylquinolin-4-yl)oxy)propyl)aniline]
MIC [1, 11]: 0.38 µM (≈ 0.16 µg/mL)

NNC(=O)c1ccncc1 [INH, isoniazid, reference compound]
MIC ([1]; Mycobacterium tuberculosis, H37RV): 2.3 µM (≈ 0.315 µg/mL)
Kind of effect on intracellular growth of M. tuberculosis H37Rv [10]: bactericidal effect
Log10 CFU/well (Mean ± SD) [10]: 2.25 ± 0.15 ^c^, ^d Log10 CFU/well
Log10 CFU/well (Mean ± SD) ([10]; listed as isoniazid): 2.25

COc1ccc2nc(C)cc(OCCCNc3ccc(Cl)cc3)c2c1 [8c, 4-Chloro-N-(3-((6-methoxy-2-methylquinolin-4-yl)oxy)propyl)aniline]
MIC [1, 11]: 0.22 µM (≈ 0.0785 µg/mL)

COc1ccc2nc(C)cc(OCC(=O)Nc3ccccc3OC)c2c1 [compound 1]
MIC (Mtb) (Mtb): 0.44 µM (≈ 0.155 µg/mL)

CCc1ccc(NCCCOc2cc(CC)nc3ccc(Cl)cc23)cc1 [8q, N-(3-((6-chloro-2-ethylquinolin-4-yl)oxy)propyl)-4-ethylaniline]
MIC [1, 11]: 0.22 µM (≈ 0.0812 µg/mL)

COc1ccc2nc(C)cc(OCC(=O)c3cccc(Cl)c3)c2c1 [compound 5]
MIC (Mtb) (Mtb): 1.8 µM (≈ 0.615 µg/mL)

C=CCc1ccccc1OCC(O)CNC(C)C (stereo not shown) [alprenolol]
Papp at 5 h, 10 µM (in vitro): 4.1 ×10⁻⁶ cm/s

Cc1cc(OCCCNc2ccc(Br)cc2)c2cc(Br)ccc2n1 [8s, 4-Bromo-N-(3-((6-bromo-2-methylquinolin-4-yl)oxy)propyl)aniline]
MIC [1, 11]: 0.35 µM (≈ 0.158 µg/mL)

COc1ccc2nc(C)cc(OCc3ccc(Cl)c(Cl)c3)c2c1 [compound 4]
MIC (Mtb) (Mtb): 0.3 µM (≈ 0.104 µg/mL)

CCc1cc(OCCCNc2ccc(Cl)cc2)c2cc(Cl)ccc2n1 [8o, 4-Chloro-N-(3-((6-chloro-2-ethylquinolin-4-yl)oxy)propyl)aniline]
MIC [1, 11]: 0.11 µM (≈ 0.0413 µg/mL)

CCc1nc2ccc(Cl)cn2c1C(=O)NCc1ccc(N2CCC(c3ccc(OC(F)(F)F)cc3)CC2)cc1 [Q203, telacebec, reference compound]
MIC ([1]; Mycobacterium tuberculosis, M. tuberculosis H37Rv, resazurin-based assay): 0.009 µM (≈ 0.00501 µg/mL)

COc1ccc2nc(C)cc(OCCCNc3ccc(C)cc3)c2c1 [8h, N-(3-((6-methoxy-2-methylquinolin-4-yl)oxy)propyl)-4-methylaniline]
MIC [1, 11]: 0.24 µM (≈ 0.0807 µg/mL)

COc1ccc2nc(C)cc(OCCCNc3ccc(F)cc3)c2c1 [8b, 4-Fluoro-N-(3-((6-methoxy-2-methylquinolin-4-yl)oxy)propyl)aniline]
MIC [1, 11]: 0.47 µM (≈ 0.16 µg/mL)

COc1ccc2nc(C)cc(OCCCNc3ccc(C(F)(F)F)cc3)c2c1 [8f, N-(3-((6-methoxy-2-methylquinolin-4-yl)oxy)propyl)-4-(trifluoromethyl)aniline]
MIC [1, 11]: 3.20 µM (≈ 1.25 µg/mL)

N-(3-((6-Chloro-2-methylquinolin-4-yl)oxy)propyl)-4-ethylaniline [8n]
MIC PT2 [2]: <0.06 µM
Solubility pH 1.2 [9]: 200 μM
Solubility pH 9.1 [9]: 0.37 μM
Solubility pH 7.4 [9]: 0.06 μM
MIC [1, 11]: 0.03 µM
MIC PT12 [7]: <0.06 µM
MIC PT20 [8]: <0.06 µM

CCc1cc(OCCCNc2ccc(Cl)cc2)c2cc(Br)ccc2n1 [8u, N-(3-((6-bromo-2-ethylquinolin-4-yl)oxy)propyl)-4-chloroaniline]
MIC [1, 11]: 0.19 µM (≈ 0.0798 µg/mL)
